Source: patent US5661151A, “Tetrahydrofuran antifungals” (Schering Corporation, priority 1995, dated 1997)
In brackets after ≈: the same amount, converted by molar mass.

Experiments:
Aspergillus [1] = assay: In vitro broth dilution MFC, Aspergillus; type: cell-based, Aspergillus flavus, fumigatus and other species; details: 37 strains
Description: (§1) The in vitro antifungal activity tests were performed via conventional broth dilution methods in Sabouraud dextrose broth ("SDB") medium and Eagles Minimum Essential Medium ("EMEM") against a large number of fungi. Minimum Inhibitory Concentrations ("MICs") were measured after 24, 48 and 72 hour tests. In many cases, Minimum Fungicidial Concentrations ("MFCS") were measured after 48 and 72 hours.

Candida krusei [2] = assay: In vitro broth dilution MFC, Candida krusei; type: cell-based; details: 16 strains
Description: as §1

Candida glabrata [3] = assay: In vitro broth dilution MIC, Candida glabrata; type: cell-based; details: 9 strains; for MIC90: Nakaseomyces glabratus, read-out: MIC 90 (Minimum Inhibitory Concentrations for 90% of the strains)
Description: as §1

Candida albicans [4] = assay: In vitro broth dilution MIC, Candida albicans; type: cell-based; details: 26 strains; for MIC90: read-out: MIC 90 (Minimum Inhibitory Concentrations for 90% of the strains)
Description: as §1

Aspergillus [5] = assay: In vitro broth dilution MIC, Aspergillus; type: cell-based, Aspergillus flavus, fumigatus and other species; details: for MIC90: read-out: MIC 90 (Minimum Inhibitory Concentrations for 90% of the strains)
Description: as §1

Cryptococcus neoformans [6] = assay: In vitro broth dilution MIC, Cryptococcus neoformans; type: cell-based; details: 3 strains
Description: as §1

Dermatophytes [7] = assay: In vitro broth dilution MFC, dermatophytes; type: cell-based, T. rubrum, T. mentagrophytes, and T. tonsurans; details: 6 strains
Description: as §1

Candida albicans [8] = details: 26 strains
Description: as §1

Dermatophytes [9] = assay: In vitro broth dilution MIC, dermatophytes; type: cell-based, T. rubrum, T. mentagrophytes, and T. tonsurans; details: 6 strains
Cryptococcus neoformans [10] = assay: In vitro broth dilution MFC, Cryptococcus neoformans; type: cell-based; details: 3 strains
Description: as §1

Candida krusei [11] = assay: In vitro broth dilution MIC, Candida krusei; type: cell-based; details: 16 strains
[12] = tested on: Candida tropicalis & stellatoidea; details: 5 strains
Description: as §1

Candida glabrata [13] = assay: In vitro broth dilution MFC, Candida glabrata; type: cell-based; details: 9 strains
Description: as §1

[14] = tested on: Candida tropicalis & stellatoidea; assay: In vitro broth dilution MIC, Candida tropicalis & stellatoidea; type: cell-based; details: 5 strains
Description: as §1

[15] = tested on: cytochrome P-450 liver drug metabolizing enzymes; assay: Induction of cytochrome P-450 liver drug metabolizing enzymes in an in vivo rat model; details: after oral administration
[16] = Serum levels, serum half lives and tissue distribution following oral dosing; type: in vivo, mice, rats, dogs and monkeys

## CC[C@H]([C@H](C)O)n1ncn(-c2ccc(N3CCN(c4ccc(OC[C@@H]5CO[C@@](Cn6cncn6)(c6ccc(F)cc6F)C5)cc4)CC3)cc2)c1=O
Aspergillus [1]
  Percentage of strains with MFCs ≤1 mcg/ml: 50 PERCENTAGE
Candida krusei [2]
  Percentage of strains with MFCs ≤1 mcg/ml: 88 PERCENTAGE
Candida glabrata [3]
  MIC90: 28.8 µg/mL (≈ 41.1 µM)
Candida albicans [4]
  MIC90: 0.274 µg/mL (≈ 0.391 µM)
Aspergillus [5]; Aspergillus, 37 strains
  MIC90: 0.122 µg/mL (≈ 0.174 µM)
Cryptococcus neoformans [6]
  MIC 90 (Minimum Inhibitory Concentrations for 90% of the strains): .05 MCG/ML
Dermatophytes [7]
  Percentage of strains with MFCs ≤1 mcg/ml: 67 PERCENTAGE

## OC(Cn1cncn1)(Cn1cncn1)c1ccc(F)cc1F [FLZ, fluconazole]
Candida albicans [8]
  Percentage of strains with MFCs ≤1 mcg/ml: 100 PERCENTAGE
Aspergillus [1]
  Percentage of strains with MFCs ≤1 mcg/ml: 0 PERCENTAGE
Candida krusei [2]
  Percentage of strains with MFCs ≤1 mcg/ml: 0 PERCENTAGE
Dermatophytes [9]
  Percentage of strains with MICs ≤1 mcg/ml: 100 PERCENTAGE
Candida glabrata [3]
  Percentage of strains with MICs ≤1 mcg/ml: 0 PERCENTAGE
  MIC90: 29.3 µg/mL (≈ 95.7 µM)
Candida albicans [4]
  Percentage of strains with MICs ≤1 mcg/ml: 100 PERCENTAGE
  MIC90: 0.887 µg/mL (≈ 2.9 µM)
Aspergillus [5]; Aspergillus, 37 strains
  Percentage of strains with MICs ≤1 mcg/ml: 0 PERCENTAGE
  MIC90: 29.9 µg/mL (≈ 97.6 µM)
Aspergillus [5]; SDB, 37 species of Aspergillus, read-out: geometric mean MICs
  MIC: ≥ 32 µg/mL
Cryptococcus neoformans [10]
  Percentage of strains with MFCs ≤1 mcg/ml: 0 PERCENTAGE
Cryptococcus neoformans [6]
  Percentage of strains with MICs ≤1 mcg/ml: 0 PERCENTAGE
Cryptococcus neoformans [6]; read-out: MIC 90 (Minimum Inhibitory Concentrations for 90% of the strains)
  MIC90: 25.9 µg/mL (≈ 84.6 µM)
Candida krusei [11]
  Percentage of strains with MICs ≤1 mcg/ml: 0 PERCENTAGE
Candida krusei [11]; Pichia kudriavzevii, read-out: MIC 90 (Minimum Inhibitory Concentrations for 90% of the strains)
  MIC90: 29.9 µg/mL (≈ 97.6 µM)
[12]
  Percentage of strains with MFCs ≤1 mcg/ml: 100 PERCENTAGE
Candida glabrata [13]
  Percentage of strains with MFCs ≤1 mcg/ml: 0 PERCENTAGE
[14]
  Percentage of strains with MICs ≤1 mcg/ml: 100 PERCENTAGE
[14]; Candida tropicalis, read-out: MIC 90 (Minimum Inhibitory Concentrations for 90% of the strains)
  MIC90: 0.917 µg/mL (≈ 2.99 µM)
Dermatophytes [7]
  Percentage of strains with MFCs ≤1 mcg/ml: 0 PERCENTAGE

## CCC(C(C)O)n1ncn(-c2ccc(N3CCN(c4ccc(OCC5COC(Cn6cncn6)(c6ccc(F)cc6F)C5)cc4)CC3)cc2)c1=O (centres unmarked) [drawing 21]
[15]
  induction of various cytochrome P-450 liver drug metabolizing enzymes: not inducers
[16]; following O.D. dosing
  serum half lives: very long serum half lives
[16]; mice, rats, dogs and monkeys, oral dosing with a methyl cellulose formulation
  serum levels compared to azoles of similar structure: consistently higher serum levels

## CCC(C(C)O)n1ncn(-c2ccc(N3CCN(c4ccc(OCC5COC(Cn6cncn6)(c6ccc(F)cc6F)C5)cc4)CC3)cc2)c1=O (centres unmarked) [drawing 23]
Aspergillus [1]
  Percentage of strains with MFCs ≤1 mcg/ml: 62 PERCENTAGE
Candida krusei [2]
  Percentage of strains with MFCs ≤1 mcg/ml: 94 PERCENTAGE
Cryptococcus neoformans [6]
  MIC 90 (Minimum Inhibitory Concentrations for 90% of the strains): .007 MCG/ML
Dermatophytes [7]
  Percentage of strains with MFCs ≤1 mcg/ml: 83 PERCENTAGE

## CCC(C(C)O)n1ncn(-c2ccc(N3CCN(c4ccc(OCC5COC(Cn6cncn6)(c6ccc(F)cc6F)C5)cc4)CC3)cc2)c1=O (centres unmarked) [drawing 24]
Aspergillus [1]
  Percentage of strains with MFCs ≤1 mcg/ml: 89 PERCENTAGE
Candida krusei [2]
  Percentage of strains with MFCs ≤1 mcg/ml: 100 PERCENTAGE
Dermatophytes [7]
  Percentage of strains with MFCs ≤1 mcg/ml: 100 PERCENTAGE
